Measured values from patent US10344330B2, “Glatiramer acetate response biomarker mRNA potency assay” (Mylan Inc., priority 2013, dated 2019).

B1: MBP: myelin basic protein, a negative control (protein, UniProt P02686 1-304, looked up)
Myelin basic protein: MGNHAGKRELNAEKASTNSETNRGESEKKRNLGELSRTTSEDNEVFGEADANQNNGTSSQDTAVTDSKRTADPKNAWQDAHPADPGSRPHLIRLFSRDAPGREDNTFKDRPSESDELQTIQEDSAATSESLDVMASQKRPSQRHGSKYLATASTMDHARHGFLPRHRDTGILDSIGRFFGGDRGAPKRGSGKDSHHPARTAHYGSLPQKSHGRTQDENPVVHFFKNIVTPRTPPPSQGKGRGLSLSRFSWGAEGQRPGFGYGGRASDYKSAHKGFKGVDAQGTLSKIFKLGGRDSRSGSPMARR

Key:
Assay type in all cases: cell-based, mouse
[1] = tested on: mIL-4 mRNA in primary LN cells; experiment: mIL-4 mRNA by real-time PCR in stimulated LN cells of immunized (SJL/J×BALB/C)F1 mice (Example I); settings: for mIL-4 mRNA Level: Experiment 1, GA-immunized (SJL/J×BALB/C)F1; for mIL-4 mRNA: reference 18S rRNA
Method: For each of the three experiments summarized in Table 1, female (SJL/J×BALB/C) F1 hybrid (Jackson Laboratory) mice were immunized by footpad injection with either 250 μg GMA (Mylan Pharmaceuticals, Inc.) and CFA (Sigma Aldrich), or Mannitol and CFA (as a negative control). The GA solution was diluted to 5 mg/mL with Dulbecco's Phosphate-buffered saline. A dose solution was then prepared by mixing the diluted GA solution (5 mg/mL) and CFA (1:1) until well-emulsified. Each mouse received a total injection volume of 0.1 mL (250 μg GA). Animals were immunized on Day 0. Immunized animals were sacrificed via cervical dislocation on Day 10 following immunization. […] The LN were washed 3 times with −5 mL of RPMI medium, and the LN cells isolated by pressing the LN with a syringe plunger. […] The cell suspension was centrifuged at about 200×g for 10 minutes at about 4° C. and re-suspended in ice cold enriched DCCM-1 medium. The LN cells (2.5×10^6 cells/cm^2) were plated in the wells of a 48-well tissue culture plate and stimulated with GA or controls.
Expression of cytokine mRNA was quantitatively analyzed using a Real-Time PCR system (7500, Applied Biosystems).
(DCCM1 from Beit Haemek Ltd.; Cat. No. 05 010 1A). There was no MBP treatment for the 2-hour groups.
Group 1B animals were female (SJL/J×BALB/C) F1 hybrid (Jackson Laboratory) mice immunized by footpad injection with either 250 μg GA and CFA, or Mannitol and CFA (as a negative control). A dose solution was prepared by mixing a diluted GA solution (5 mg/mL) and CFA (1:1). Each mouse received a total injection volume of […] (250 μg GA). Animals were immunized on Day 0. Immunized animals were sacrificed via cervical dislocation on Day 10 following immunization. Lymph nodes from immunized mice were removed and isolated. LN cells (2.5×10^6 cells/cm^2) were plated in the wells of a 48-well tissue culture plate for stimulation with GA.
Expression of cytokine mRNA was quantitatively analyzed 4 and 6 hours after using a Real-Time PCR system (7500, Applied Biosystems).

[2] = tested on: IL-2 mRNA in LN cells; experiment: IL-2 mRNA by real-time PCR in LN cells of GA-immunized CD-1, BALB/cByJ, SJL/J mice (Example III); settings: 6 hours
Method: (§1) On Day 0, mice were immunized with 250 μg GA (GMA, Mylan Pharmaceuticals, Inc.) and CFA. The GA solution (20 mg/mL) was diluted with Dulbecco's Phosphate-Buffered Saline to 5 mg/mL. The dosing formulation consisted of equal volumes of the diluted GA solution (5 mg/mL) and CFA solution, mixed until well-emulsified. Animals were weighed and allocated to groups. Animals were dosed by injection into four footpads. The injection volume per animal was 0.1 mL (about 10 μL into each front footpad, and 40 μL into each hind footpad).
(§2) Immunized animals were euthanized by cervical dislocation on Day 10 post-immunization. Lymph node cells were isolated from animals and treated with Myelin Basic Protein (MBP, a negative control), Concanavalin A (ConA, a positive control) or GA as shown in Table 16. Lymph nodes in the axillary and popliteal regions were removed aseptically in a purifier clean bench. […] The LN were then washed 3 times with −5 mL of RPMI medium, and isolated by pressing the LN with a syringe plunger. […] The cell suspension was centrifuged at about 200×g for 10 minutes at about 4° C. and re-suspended in ice cold enriched DCCM-1 medium. Cells were seeded in 96-well tissue culture plates.
(§3) LN cells isolated from GA-immunized animals were stimulated with GA (GMA, Mylan Pharmaceuticals, Inc.) at concentrations as indicated in Tables 16 and 17. A positive control was prepared by treating LN cells with 2.5 μg/mL concavalin A (ConA, a non-specific T cell stimulant). Myelin basic protein (MBP, 10 μg/mL) and enriched DCCM-1 medium served as negative controls. The cells from all groups each were stimulated with the same GA lot. Each reaction was set up in triplicate.
(§4) After incubation at about 37° C. in a humidified CO2 incubator for 6 hours, the cells were lysed for total RNA isolation. Total RNA was isolated from treated LN cells using SV 96 Total RNA Isolation System according to the manufacturer's protocol (Promega, Cat. #Z3500). Cells were washed once with Phosphate Buffered Saline (PBS) and lysed in RNA lysis buffer. The lysate was transferred to wells of the SV 96 binding plate. Samples were washed with RNA wash solution and treated with DNase. Total RNA was eluted with nuclease-free water from the binding plate.
(§5) After the reverse transcriptase reaction was completed, cDNA samples were used directly for real-time PCR to measure the response biomarker mRNA levels produced by the stimulated cells. […] All probes for target genes contained FAM dye, and probes for the internal control contained VIC®/MGB dye. Samples will be prepared and run in 96-well plates using a Real-Time PCR system (7500, Life Technologies). This system allows direct detection of PCR-product formation by measuring the increase in fluorescent emission continuously during the PCR reaction. A relative quantitation method was used to analyze changes in mouse IL-2, IL-4, IL-5, IL-10, IL-13, IFN-γ and TNF-α expression in GA-treated samples relative to the untreated control (enriched DCCM-1 treated) samples. The Real-Time PCR program was:
(§6) The levels of mouse cytokine amplicons (IL-2, IL-4, IL-5, IL-10, IL-13, mIFN-γ and TNF-α) were normalized to internal probe levels (GAPDH) from the same samples. The following equations were used to calculate the relative increase in response to GA stimulation compared to the control sample: ΔCT=CT_target−CT_reference ΔΔCT=−ΔCT_Treated−CT_VC

[3] = tested on: IL-4 mRNA in LN cells; experiment: IL-4 mRNA by real-time PCR in LN cells of GA-immunized CD-1, BALB/cByJ, SJL/J mice (Example III); settings: 6 hours
Method: as §1, §2, §3, §4, §5, §6

[4] = 2 hour post stimulation, GA 10, ConA 2.5 μg/mL
[5] = 4 hour post stimulation, GA 10, MBP 10, ConA 2.5 μg/mL
[6] = 6 hour post stimulation, GA 10, MBP 10, ConA 2.5 μg/mL
[7] = 24 hour post stimulation, GA 10, MBP 10, ConA 2.5 μg/mL
[8] = Group 1B (GA + CFA), 4 hours post-stimulation, GA 10, MBP 10, ConA 2.5 μg/mL
[9] = Group 1B (GA + CFA), 6 hours post-stimulation, GA 10, MBP 10, ConA 2.5 μg/mL
[10] = Group 2B (Mannitol + CFA), 4 hours post-stimulation, GA 10, MBP 10, ConA 2.5 μg/mL
[11] = Group 2B (Mannitol + CFA), 6 hours post-stimulation, GA 10, MBP 10, ConA 2.5 μg/mL
[12] = Group 1C: CD-1, GA-immunized, stimulation 2.5 μg/mL
[13] = Group 2C: BALB/cByJ, GA-immunized, stimulation 2.5 μg/mL
[14] = Group 3C: SJL/J, GA-immunized, stimulation 2.5 μg/mL
[15] = Group 1C: CD-1, GA-immunized, stimulation 0.3 μg/mL
[16] = Group 1C: CD-1, GA-immunized, stimulation 1 μg/mL
[17] = Group 1C: CD-1, GA-immunized, stimulation 3 μg/mL
[18] = Group 1C: CD-1, GA-immunized, stimulation 10 μg/mL
[19] = Group 2C: BALB/cByJ, GA-immunized, stimulation 0.3 μg/mL
[20] = Group 2C: BALB/cByJ, GA-immunized, stimulation 1 μg/mL
[21] = Group 2C: BALB/cByJ, GA-immunized, stimulation 3 μg/mL
[22] = Group 2C: BALB/cByJ, GA-immunized, stimulation 10 μg/mL
[23] = Group 3C: SJL/J, GA-immunized, stimulation 0.3 μg/mL
[24] = Group 3C: SJL/J, GA-immunized, stimulation 1 μg/mL
[25] = Group 3C: SJL/J, GA-immunized, stimulation 3 μg/mL
[26] = Group 3C: SJL/J, GA-immunized, stimulation 10 μg/mL

Molecule	mIL-4 mRNA Level [1, 4] [fold change vs control]	mIL-4 mRNA Level [1, 5] [fold change vs control]	mIL-4 mRNA Level [1, 6] [fold change vs control]	mIL-4 mRNA Level [1, 7] [fold change vs control]	mIL-4 mRNA [1, 8] [fold change vs control]	mIL-4 mRNA [1, 9] [fold change vs control]	mIL-4 mRNA [1, 10] [fold change vs control]	mIL-4 mRNA [1, 11] [fold change vs control]	IL-2 mRNA Expression [2, 18] [fold change vs control]	IL-2 mRNA Expression [2, 22] [fold change vs control]	IL-2 mRNA Expression [2, 26] [fold change vs control]	IL-4 mRNA Expression [3, 18] [fold change vs control]	IL-4 mRNA Expression [3, 22] [fold change vs control]	IL-4 mRNA Expression [3, 26] [fold change vs control]	also measured
Concanavalin A [ConA, reference compound]	35.7	47.6	52.2	6.1	27.1	12.8	37.3	56.2							IL-2 mRNA Expression [2, 12]: 17.1 fold change vs control; IL-2 mRNA Expression [2, 13]: 231.7 fold change vs control; IL-2 mRNA Expression [2, 14]: 61.9 fold change vs control; IL-4 mRNA Expression [3, 12]: 23.8 fold change vs control; IL-4 mRNA Expression [3, 13]: 27.2 fold change vs control; IL-4 mRNA Expression [3, 14]: 29.2 fold change vs control
L-glutamic acid polymer with L-alanine, L-lysine and L-tyrosine, acetate (salt) [GA]	10.0	10.0	16.5	14.1	8.2	9.2	2.2	1.1	4.3	38.0	22.0	11.2	9.8	15.3	mIL-4 mRNA level increase vs DCCM-1-stimulated control ([1]; Group 1B, 4 and 6 hours (summary of Table 9)): at least 8 fold; IL-2 mRNA Expression [2, 15]: 1.0 fold change vs control; IL-2 mRNA Expression [2, 16]: 1.6 fold change vs control; IL-2 mRNA Expression [2, 17]: 2.9 fold change vs control; IL-2 mRNA Expression [2, 19]: 4.0 fold change vs control; IL-2 mRNA Expression [2, 20]: 11.7 fold change vs control; IL-2 mRNA Expression [2, 21]: 27.4 fold change vs control; IL-2 mRNA Expression [2, 23]: 1.3 fold change vs control; IL-2 mRNA Expression [2, 24]: 4.7 fold change vs control; IL-2 mRNA Expression [2, 25]: 11.0 fold change vs control; IL-4 mRNA Expression [3, 15]: 1.6 fold change vs control; IL-4 mRNA Expression [3, 16]: 4.7 fold change vs control; IL-4 mRNA Expression [3, 17]: 6.1 fold change vs control; IL-4 mRNA Expression [3, 19]: 4.2 fold change vs control; IL-4 mRNA Expression [3, 20]: 6.5 fold change vs control; IL-4 mRNA Expression [3, 21]: 10.1 fold change vs control; IL-4 mRNA Expression [3, 23]: 2.0 fold change vs control; IL-4 mRNA Expression [3, 24]: 5.2 fold change vs control; IL-4 mRNA Expression [3, 25]: 10.0 fold change vs control
B1		0.8	0.6	1.1	0.5	0.3	1.4	0.8	0.9	2.7	0.5	0.6	1.1	0.5	
